Experimental data taken from article PMC8998611, “Identification of Novel GSK-3β Hits Using Competitive Biophysical Assays” (International Journal of Molecular Sciences, 2022).

What was measured:
[1] = target: T1, SAPK2a (Homo sapiens, UniProt Q16539); assay: Eurofins Kinase Diversity Panel, SAPK2a; format: biochemical; conditions: 20 µM compound, ATP at Km ± 15 µM
T1 construct: purchased Eurofins (Kinase Diversity Panel service)
Procedure: (§1) To further characterize the inhibitory activity of the two selected fragments, the selectivity of G5 and G12 towards a panel of 58 kinases of the humane proteome was evaluated using the “Kinase screening and profiling” service of Eurofins, Luxembourg (Kinase Diversity Panel). […] Results are reported in Supplementary Figures S2 and S3.

[2] = target: T2, p70S6K (Homo sapiens, UniProt P23443); assay: Eurofins Kinase Diversity Panel, p70S6K; format: biochemical; conditions: 20 µM compound; ATP at Km ± 15 µM; read-out: inhibitory effect on p70S6K
T2 construct: purchased Eurofins (Kinase Diversity Panel service)
Procedure: as §1

[3] = target: T3, GSK-3β (Homo sapiens, UniProt P49841); assay: MicroScale Thermophoresis (MST) binding to fluorescently labeled GSK-3β; design: made in house; host or cells: Sf9 cells; conditions: for MST binding check, displacement assay: preincubation with 3 mM AMP-PNP, data not shown
Procedure: MicroScale Thermophoresis (MST) experiments were conducted in triplicate on a Monolith NT.115 Pico system (NanoTemper Technologies, Munich, Germany).
The MST technique was used both for hit binding and for affinity (kd) determination.
GSK-3β was labeled with the His-tag RED-tris-NTA label 2nd generation (Nanotemper Technologies) following Nanotemper technology protocol. The 100 nM stock labeled protein solution was used at 20 nM concentration to roughly start from 7000 fluorescence counts in each screening experiment.
GSK-3β was labelled also using RED-NHS ammine dye (Nanotemper Technologies) following the manufacturer’s protocol. The obtained ammine-labeled protein was used at 20 nM concentration to roughly start the experiments from 6000 fluorescence counts.
Binding tests were performed on eight capillaries with a constant concentration of the labeled protein (20 nM), to detect the effect induced by the compounds on the fluorescence signal (in the presence or absence of 3 mM AMP-PNP). Protein in assay buffer in the presence of 5% DMSO was the negative control.
Assay buffer: Phosphate buffer 0.1 M pH 7.2, 5 mM MgCl2, 0.001% Tween80, 0.1% PEG8000. Experiments were performed in triplicates. Data elaboration and plots were performed using MO.Control Nanotemper software.

[4] = target: T3, GSK-3β; assay: LANCE Ultra TR-FRET GSK-3β kinase inhibition assay (ULight-GS phosphorylation); format: biochemical; conditions: 1 µM ATP, 50 nM ULight-GS; for inhibition at 1 µM: 1 μM compound; for inhibition at 1 µM / inhibition at 5 µM / inhibition at 50 µM / inhibition at 100 µM: mean ± SD; for inhibition at 5 µM: 5 μM compound; for inhibition at 50 µM: 50 μM compound; for inhibition at 100 µM: 100 μM compound; for IC50: dose-response 30 nM to 200 μM
Procedure: To assess if the identified GSK-3β binders were also able to affect kinase activity, the inhibitory activity of the four identified hit compounds was tested at four concentrations (1-5-50-100 μM) using the LANCE® Ultra (Perkin Elmer, Waltham, MA, USA) time-resolved fluorescence resonance energy transfer (TR-FRET) assay. The assay measures the ability of GSK-3β to phosphorylate a specific substrate, human Muscle Glycogen Synthase (ULight-GS ([…]/pSer657)), in the presence and absence of the identified ligands. […] Specifically, IC50 values were (14.81 ± 0.55) μM and (15.25 ± 1.34) μ[…] and G12, respectively (Figure 5). The GSK-3β kinase assay was run in 384 well microplates (OptiPlate^TM-384, White, Perkin Elmer) with a total reaction volume of 20 μL. The inhibitory potency against human recombinant GSK-3β was evaluated using the LANCE® Ultra (Perkin Elmer) time-resolved fluorescence resonance energy transfer (TR-FRET) by measuring the phosphorylation of the specific substrate, human Muscle Glycogen Synthase (ULight-GS ([…]/pSer657)), according to the manufacturer's instructions. […] The reaction was initiated by adding 50 nM of the substrate ULight-[…] and 1 μM ATP. The mixture was incubated for 1 h at 23 °C. Afterward, the reaction was stopped by adding 8 mM EDTA. After 5 min, the anti-phospho-GS antibody labeled with europium chelate was added. 1 h later, the kinase reaction was monitored by irradiation at 320 nm, and the fluorescence was measured at 615 and 665 nm, using EnVision 2014 Multilabel Reader (PerkinElmer). The calculated signal ratio at 665/615 nm was proportional to the extent of ULight-GS phosphorylation. The compounds were screened at four concentrations (1-5-50-100 μM). For selected compounds, dose-response curves, ranging from 30 nM up to 200 μM, were performed. Dose-response curves were run in three independent experiments, each performed in three technical replicates. IC50 values (concentrations causing half-maximal response or enzyme inhibition) were determined by non-linear regression analysis of the Log [concentration]/response curves generated with mean replicate values using a four parameter Hill equation curve fitting with GraphPad Prism 8 (GraphPad Software Inc., San Diego, CA, USA).

T3 sequence (P49841 whole entry): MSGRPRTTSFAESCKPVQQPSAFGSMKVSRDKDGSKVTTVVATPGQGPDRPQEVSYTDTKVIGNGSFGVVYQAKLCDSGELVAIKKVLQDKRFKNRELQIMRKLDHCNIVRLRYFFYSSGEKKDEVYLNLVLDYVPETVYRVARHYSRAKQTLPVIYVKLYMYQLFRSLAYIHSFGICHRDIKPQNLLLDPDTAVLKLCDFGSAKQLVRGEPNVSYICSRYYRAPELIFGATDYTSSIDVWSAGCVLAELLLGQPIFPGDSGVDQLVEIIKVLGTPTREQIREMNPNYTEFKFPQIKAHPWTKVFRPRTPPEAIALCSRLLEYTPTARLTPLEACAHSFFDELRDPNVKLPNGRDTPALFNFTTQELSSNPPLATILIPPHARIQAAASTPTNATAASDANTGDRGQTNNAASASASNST
T2 sequence (P23443 whole entry): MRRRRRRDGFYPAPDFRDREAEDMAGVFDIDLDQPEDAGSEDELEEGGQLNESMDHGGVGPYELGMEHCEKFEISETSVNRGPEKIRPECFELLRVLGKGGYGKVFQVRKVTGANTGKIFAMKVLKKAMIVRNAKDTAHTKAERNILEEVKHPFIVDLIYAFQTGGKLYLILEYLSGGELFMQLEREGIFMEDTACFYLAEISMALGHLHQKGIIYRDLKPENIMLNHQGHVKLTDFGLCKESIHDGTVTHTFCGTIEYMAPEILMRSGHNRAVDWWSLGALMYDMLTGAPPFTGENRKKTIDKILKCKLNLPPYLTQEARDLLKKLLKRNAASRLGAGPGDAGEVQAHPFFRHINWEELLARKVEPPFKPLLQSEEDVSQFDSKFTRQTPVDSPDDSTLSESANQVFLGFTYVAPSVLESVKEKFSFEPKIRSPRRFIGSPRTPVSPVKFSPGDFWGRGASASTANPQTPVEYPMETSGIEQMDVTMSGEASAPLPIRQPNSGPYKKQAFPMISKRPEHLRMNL
T1 sequence (Q16539 whole entry): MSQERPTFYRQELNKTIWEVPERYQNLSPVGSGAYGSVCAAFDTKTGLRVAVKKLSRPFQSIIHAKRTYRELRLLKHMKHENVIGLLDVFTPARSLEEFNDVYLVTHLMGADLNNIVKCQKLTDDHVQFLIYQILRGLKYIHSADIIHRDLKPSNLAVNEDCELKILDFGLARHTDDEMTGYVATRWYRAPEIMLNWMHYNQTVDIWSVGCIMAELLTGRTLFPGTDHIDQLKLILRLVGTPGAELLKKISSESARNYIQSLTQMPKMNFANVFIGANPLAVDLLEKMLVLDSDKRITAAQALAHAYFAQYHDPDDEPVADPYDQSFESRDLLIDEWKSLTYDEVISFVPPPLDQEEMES

| SMILES | inhibition at 20 µM ([1]; read-out: inhibitory effect on SAPK2a) | inhibition at 20 µM [2] | MST binding check, displacement assay [3] | inhibition at 1 µM [4] | inhibition at 5 µM [4] | inhibition at 50 µM [4] | inhibition at 100 µM [4] | IC50 [4] | inhibitory effect on SAPK2a [1] | Kd ([3]; complete binding curve, average of three experiments ± SD, read-out: affinity parameter (kd), MST) |
| --- | --- | --- | --- | --- | --- | --- | --- | --- | --- | --- |
| CS(=O)(=O)N1CC(c2nc(N)ncc2-c2ccc(F)cc2)C1 [G5] | 19% | 26% | maintained their ability to bind GSK-3β | 0.3 ± 0.1% | 13.4 ± 2% | 69.4 ± 2% | > 80% | 14.8 ± 0.55 µM |  |  |
| O=C(Nc1ccccn1)C1CCN(C(=O)CCc2ccccc2F)C1 (centres unmarked) [G12] |  | 15% | maintained their ability to bind GSK-3β | 8.5 ± 0.1% | 15.2 ± 2.7% | 71.4 ± 1.7% | > 80% | 15.2 ± 1.34 µM | no inhibitory effect | 66.5 ± 31.8 µM |
